pIC50: −log10 of the molar value.
What was measured:
Details in all cases: averaged IC50
[1] = biological target: GST-tagged recombinant human TYRO3 kinase domain (Homo sapiens (Human), UniProt Q06418); assay: TYRO3 Enzyme Assay (LanthaScreen Eu Kinase Binding, TR-FRET)
In short: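 LanthaScreen Eu binding (tracer displacement) format read by TR-FRET after 60 min at 22 °C. Emission ratio converted to percent of control; IC50 taken where a 4-parameter logistic fit crosses 50 POC.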

[2] = biological target: His-tagged recombinant human MER cytoplasmic domain (Homo sapiens (Human), UniProt Q12866); assay: MER Enzyme Assay (LanthaScreen Eu Kinase Binding, TR-FRET)
In short: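 LanthaScreen Eu kinase binding (tracer displacement) assay with His-tagged human MER cytoplasmic domain, 60 min incubation at 22 °C. TR-FRET dual-wavelength emission ratio converted to percent of control; IC50 is where the 4-parameter logistic fit crosses 50 POC.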

[3] = biological target: His-tagged recombinant human AXL cytoplasmic domain (Homo sapiens (Human), UniProt P30530); assay: AXL Enzyme Assay (LanthaScreen Eu Kinase Binding, TR-FRET)
In short: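 LanthaScreen Eu kinase binding format, incubated 60 min at 22 °C and read by TR-FRET dual-wavelength emission ratio as percent of control. IC50 taken where a 4-parameter logistic fit crosses 50 POC.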

Sequence of GST-tagged recombinant human TYRO3 kinase domain (Q06418 518-790): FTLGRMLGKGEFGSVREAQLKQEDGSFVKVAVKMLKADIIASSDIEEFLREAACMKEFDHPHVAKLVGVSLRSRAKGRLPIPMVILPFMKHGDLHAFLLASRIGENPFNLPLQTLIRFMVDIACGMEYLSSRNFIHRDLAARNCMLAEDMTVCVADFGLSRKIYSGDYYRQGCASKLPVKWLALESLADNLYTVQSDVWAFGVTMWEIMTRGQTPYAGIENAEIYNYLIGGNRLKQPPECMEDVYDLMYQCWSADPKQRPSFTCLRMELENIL
Sequence of His-tagged recombinant human AXL cytoplasmic domain (P30530 473-894): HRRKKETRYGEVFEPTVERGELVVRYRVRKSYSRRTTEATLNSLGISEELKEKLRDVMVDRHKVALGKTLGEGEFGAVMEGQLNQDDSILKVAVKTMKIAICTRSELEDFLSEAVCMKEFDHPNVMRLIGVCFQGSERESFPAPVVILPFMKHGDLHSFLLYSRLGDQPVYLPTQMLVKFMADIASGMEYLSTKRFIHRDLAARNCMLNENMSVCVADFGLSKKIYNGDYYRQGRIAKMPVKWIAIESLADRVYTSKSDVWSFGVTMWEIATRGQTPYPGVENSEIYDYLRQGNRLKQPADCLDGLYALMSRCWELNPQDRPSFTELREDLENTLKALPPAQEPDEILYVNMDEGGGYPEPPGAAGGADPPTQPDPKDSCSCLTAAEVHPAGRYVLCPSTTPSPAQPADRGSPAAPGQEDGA
Sequence of His-tagged recombinant human MER cytoplasmic domain (Q12866 527-999): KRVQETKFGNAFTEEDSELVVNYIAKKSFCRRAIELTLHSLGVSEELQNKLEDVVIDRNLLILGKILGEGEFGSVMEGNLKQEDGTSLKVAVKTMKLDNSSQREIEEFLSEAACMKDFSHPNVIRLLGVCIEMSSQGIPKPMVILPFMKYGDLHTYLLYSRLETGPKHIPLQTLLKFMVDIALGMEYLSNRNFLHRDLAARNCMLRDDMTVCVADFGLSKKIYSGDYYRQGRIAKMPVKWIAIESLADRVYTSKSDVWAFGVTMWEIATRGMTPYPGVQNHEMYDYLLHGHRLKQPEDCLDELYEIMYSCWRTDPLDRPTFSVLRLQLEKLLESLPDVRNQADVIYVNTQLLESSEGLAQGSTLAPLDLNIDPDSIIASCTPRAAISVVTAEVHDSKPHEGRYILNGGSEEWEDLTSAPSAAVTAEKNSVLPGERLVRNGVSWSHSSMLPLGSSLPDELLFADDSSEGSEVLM

pIC50 [1]	pIC50 [2]	pIC50 [3]	Compound
7.00 to 8.00	> 8.00	> 8.00	CNc1cc2c(cn1)c(-c1cnn(C)c1)nn2[C@H]1CC[C@@H](Oc2ccccc2)[C@H](O)C1 [Example 471B, (1R,2R,5S)-5-(3-(1-methyl-1H-pyrazol-4-yl)-6-(methylamino)-1H-pyrazolo[4,3-c]pyridin-1-yl)-2-phenoxycyclohexan-1-ol]
> 8.00	> 8.00	> 8.00	CCNc1cc2c(cn1)c(-c1cnn(C[C@@H](O)CO)c1)nn2[C@H]1CC[C@@H](Oc2nccc(C#N)c2F)CC1 [Example 487, 2-(((1S,4s)-4-(3-(1-((R)-2,3-dihydroxypropyl)-1H-pyrazol-4-yl)-6-(ethylamino)-1H-pyrazolo[4,3-c]pyridin-1-yl)cyclohexyl)oxy)-3-fluoroisonicotinonitrile]
7.00 to 8.00	> 8.00	> 8.00	CCNc1cc2c(cn1)c(N1CC[C@@H](O)C1)nn2[C@H]1CC[C@@H](Oc2nccc(C(F)(F)F)c2F)CC1 [Example 488, (R)-1-(6-(ethylamino)-1-((1s,4S)-4-((3-fluoro-4-(trifluoromethyl)pyridin-2-yl)oxy)cyclohexyl)-1H-pyrazolo[4,3-c]pyridin-3-yl)pyrrolidin-3-ol]
7.00 to 8.00	> 8.00	> 8.00	CCNc1cc2c(cn1)c(N1CCC(N3CCN(C)CC3)CC1)nn2[C@H]1CC[C@@H](Oc2nccc(C(F)(F)F)c2F)CC1 [Example 489, N-ethyl-1-((1s,4s)-4((3-fluoro-4-(trifluoromethyl)pyridin-2-yl)oxy)cyclohexyl)-3-(4-(4-methylpiperazin-1-yl)piperidin-1-yl)-1H-pyrazolo[4,3-c]pyridin-6-amine]
> 8.00	> 8.00	> 8.00	CCNc1cc2c(cn1)c(N1CCNCC1)nn2[C@H]1CC[C@@H](Oc2cccc(C(F)(F)F)c2F)CC1 [Example 490, N-ethyl-1-((1s,4s)-4-(2-fluoro-3-(trifluoromethyl)phenoxy)cyclohexyl)-3-(piperazin-1-yl)-1H-pyrazolo[4,3-c]pyridin-6-amine]
7.00 to 8.00	> 8.00	> 8.00	CCNc1cc2c(cn1)c(N1CC[C@H](NC)C1)nn2[C@H]1CC[C@@H](Oc2cccc(C(F)(F)F)c2F)CC1 [Example 491, N-ethyl-1-((1s,4R)-4-(2-fluoro-3-(trifluoromethyl)phenoxy)cyclohexyl)-3-((S)-3-(methylamino)pyrrolidin-1-yl)-1H-pyrazolo[4,3-c]pyridin-6-amine]
7.00 to 8.00	> 8.00	> 8.00	CCNc1cc2c(cn1)c(N1CC[C@@H](NC)C1)nn2[C@H]1CC[C@@H](Oc2cccc(C(F)(F)F)c2F)CC1 [Example 492, N-ethyl-1-((1s,4S)-4-(2-fluoro-3-(trifluoromethyl)phenoxy)cyclohexyl)-3-((R)-3-(methylamino)pyrrolidin-1-yl)-1H-pyrazolo[4,3-c]pyridin-6-amine]
7.00 to 8.00	> 8.00	> 8.00	CCNc1cc2c(cn1)c(N1CC[C@H](N)C1)nn2[C@H]1CC[C@@H](Oc2nccc(C(F)(F)F)c2F)CC1 [Example 493, 3-((S)-3-aminopyrrolidin-1-yl)-N-ethyl-1-((1s,4R)-4-((3-fluoro-4-(trifluoromethyl)pyridin-2-yl)oxy)cyclohexyl)-1H-pyrazolo[4,3-c]pyridin-6-amine]
7.00 to 8.00	> 8.00	> 8.00	CCNc1cc2c(cn1)c(N1CC[C@@H](N)C1)nn2[C@H]1CC[C@@H](Oc2nccc(C(F)(F)F)c2F)CC1 [Example 494, 3-((R)-3-aminopyrrolidin-1-yl)-N-ethyl-1-((1s,4S)-4-((3-fluoro-4-(trifluoromethyl)pyridin-2-yl)oxy)cyclohexyl)-1H-pyrazolo[4,3-c]pyridin-6-amine]
> 8.00	> 8.00	> 8.00	CNc1cc2c(cn1)c(N1CCNCC1)nn2[C@H]1CC[C@@H](Oc2nccc(C(F)(F)F)c2F)CC1 [Example 495, 1-((1s,4s)-4-((3-fluoro-4-(trifluoromethyl)pyridin-2-yl)oxy)cyclohexyl)-N-methyl-3-(piperazin-1-yl)-1H-pyrazolo[4,3-c]pyridin-6-amine]
> 8.00	> 8.00	> 8.00	CCNc1cc2c(cn1)c(-c1cnn(CCN3CCN(C)CC3)c1)nn2[C@H]1CC[C@@H](Oc2nccc(C(F)(F)F)c2F)CC1 [Example 496]
> 8.00	> 8.00	> 8.00	CCNc1cc2c(cn1)c(-c1cnn(C)c1)nn2[C@H]1CC[C@@H](Oc2cccc(C#N)c2F)CC1 [Example 497]
7.00 to 8.00	> 8.00	> 8.00	CCNc1cc2c(cn1)c(-c1cnn(C)c1)nn2[C@H]1CC[C@@H](Oc2cccc(C(F)(F)F)c2F)CC1 [Example 498, N-ethyl-1-((1s,4s)-4-(2-fluoro-3-(trifluoromethyl)phenoxy)cyclohexyl)-3-(1-methyl-1H-pyrazol-4-yl)-1H-pyrazolo[4,3-c]pyridin-6-amine]
